A short description of series [1]: Peptide stability in simulated gastric fluid (SGF). It is filed as in vitro ADME. As to conditions: pig, pH 1.2, pepsin, 37° C. Summed up:
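Peptide (10 μM final) incubated at 37 °C in USP SGF, pH 1.2 with porcine pepsin 3.2 g/L; aliquots at 0, 1 and 4 h quenched in acidified acetonitrile.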

Series [2] relates to IL-23 mediated IFN-γ secretion (human whole blood). Description: Functional inhibition of IL-23 mediated IFN-γ secretion in human whole blood. It is filed as cell-based. As to conditions: Table 3-5, hIL-23 EC80 with hIL-2 and hIL-18. From the text: An in vitro human whole blood assay was used to assess the ability of IL23-R inhibitor compounds to inhibit IL-23-mediated IFN-γ secretion. The assay quantifies the functional antagonism of the IL23R inhibitors may be used to rank inhibitor potencies based on concentration response curves (CRCs) generated in the presence of fixed IL-23, IL-2 and IL-18 concentrations. […] and maximal inhibitory response may be calculated from the curves.
Human blood was obtained from voluntary donors at Blodbanken Hvidovre Hospital, Denmark on the day of the experiment by collection in BD Sodium-Heparin Vacutainer tubes [Cat #367876, Avantor].
The buffer used consisted of RPMI-1640 [Cat #61870-010; Thermo Fisher Scientific] supplemented with 1% V/V Penicillin-Streptomycin (Pen-Strep) Solution [Cat #15140; Thermo Fisher Scientific] and 1 mM Sodium Pyruvate [Cat #11360-039, Thermo Fisher Scientific] and 25 mM HEPES buffer [Cat #15630-056, Thermo Fisher Scientific] and 0.05% V/V Casein [Cat #C4765, Sigma-Aldrich] (hereafter referred to as assay buffer). […] A stimulatory solution of hIL-23 [Cat #11349-IL; R&D systems] corresponding to 4× the EC80 of hIL-23 (1.6 ng/ml) together with 4× hIL-2 [Cat #BT-002; R&D systems] (40 ng/ml) and 4× hIL-18 [Cat #9124-IL; R&D systems] (80 ng/ml) were also prepared in Assay buffer. To initiate the assay, 25 μL of the prepared 4× diluted test compound was added to the wells of a 96 well plate [Cat #167425; Thermo Scientific] followed by addition of 50 μL human whole blood to each well. Following the preincubation of the blood and inhibitor for 15 min in a cell incubator (37° C., 5% CO2), 25 μL of the prepared 4× stimulatory solution was added to each well and incubated for 16-24 hours in a humidity chamber in a cell incubator (37° C., 5% CO2).
To terminate the assay, 100 μL PBS pH 7.4 [Cat #10010-015; Thermo Fisher Scientific] was added to each well and the plate was spun at 350×G for ten minutes to pellet the blood. The supernatant was removed and added to a 96 well V-bottom Polypropylene plate [Corning 3363] using an 8-channel manual pipette.
Samples were diluted an additional 30× in Diluent 57 buffer from the MSD U-PLEX human IFN-γ assay [Cat #K151TTK-2; Mesoscale Discovery].
The IFN-γ level in the supernatant from the individual wells was determined using the MSD U-PLEX human IFN-γ assay kit [Cat #K151TTK-2; Mesoscale Discovery] and read on a Meso QuickPlex SQ 120 plate reader (Mesoscale Discovery).
For data analysis, raw data counts from the Meso QuickPlex SQ 120 plate reader were converted to concentrations of IFN-γ by using the standard curved supplied with the kit. Compound potency (IC50) and maximal inhibition (% inhibition) was estimated by computer-aided curve fitting using a 4-parameter logistic (4PL) non-linear mode. […] Maximal inhibition was expressed as a percentage where 0% is the activity level induced by the reference agonist alone ([…] together with IL-2 and IL-18 as indicated above), and 100% is the baseline activity level of the unstimulated receptor in the absence of the reference agonist.
Typically compounds with a low IC50 are desired. Typically compounds capable of completely inhibiting the IL23-induced response are desired.

*1 amine or outer side, *2 acyl side, *3 side chain or, on linkers, in order; H or OH if unused. Where a SMILES comes first, the peptide text is derived from it. Bridges are numbered along the chain shown (N, C = ends). [ ]: non-standard residue; d: D form. 2Nal = N[C@@H](Cc1ccc2ccccc2c1)C(=O)O; AEF = NCCOc1ccc(C[C@H](N)C(=O)O)cc1; X1 = O=C(Cc1ccc(CN[*:1])cc1)[*:2]; 3Pal = N[C@@H](Cc1cccnc1)C(=O)O; αMeL = CC(C)C[C@](C)(N)C(=O)O; Dab = NCC[C@H](N)C(=O)O; Sar = CNCC(=O)O

The IC50 is the concentration needed to halve the response being measured.

In the case of `CNC(=O)CC[C@@H]1NC(=O)[C@H](Cc2c[nH]c3ccccc23)NC(=O)[C@@H]2CCC(=O)NCC[C@H](NC1=O)C(=O)N[C@@H](Cc1ccc(OCCN)cc1)C(=O)N[C@@H](Cc1ccc3ccccc3c1)C(=O)N[C@@](C)(CC(C)C)C(=O)N[C@H](C(=O)N[C@@H](CCN)C(=O)N[C@@H](Cc1cccnc1)C(=O)NC)CCC(=O)NCc1ccc(cc1)CC(=O)N[C@@H](CO)C(=O)N2` [Compound 29, [4-Aminomethyl-phenylacetyl](1c)*SE(2c)W[Q(Me)][Dab](2c)[Y(2-aminoethoxy)][2-Nal][2-Me-Leu]E(1c)[Dab][3-(3-Pyridyl)-Ala]-[NHMe]] ([X1]SEWE(NHMe)[Dab][AEF][2Nal][αMeL]E[Dab][3Pal]-NHMe; lactam 3-6, N-10), in series [1], the fraction remaining at 1 h, 10 µM is 94% and the amount remaining at 4 h, 10 µM was 90%. Further, in series [2], the IC50 turned out to be 0.54 nM and the “maximal inhibition (%)” value is listed as 96%.
The corresponding values for `CNC(=O)[C@H](Cc1cccnc1)NC(=O)[C@H](CCN)NC(=O)[C@@H]1CCC(=O)NCc2ccc(cc2)CC(=O)N[C@@H](C)C(=O)N[C@H]2CCC(=O)NCC[C@H](NC(=O)[C@H](CCC(N)=O)NC(=O)[C@H](Cc3c[nH]c4ccccc34)NC2=O)C(=O)N[C@@H](Cc2ccc(OCCN)cc2)C(=O)N[C@@H](Cc2ccc3ccccc3c2)C(=O)N[C@@](C)(CC(C)C)C(=O)N1` [Compound 20, [4-Aminomethyl-phenylacetyl](1c)*AE(2c)WQ[Dab](2c)[Y(2-aminoethoxy)][2-Nal][2-Me-Leu]E(1c)[Dab][3-(3-Pyridyl)-Ala]-[NHMe]] are 107%, 103%, 0.64 nM and 97%.
For `CNC(=O)[C@H](Cc1cccnc1)NC(=O)[C@H](CCN)NC(=O)[C@@H]1CCC(=O)NCc2ccc(cc2)CC(=O)N[C@@H](C)C(=O)N[C@H]2CCC(=O)NCC[C@H](NC(=O)[C@H](CCC(N)=O)NC(=O)[C@H](Cc3c[nH]c4ccccc34)NC2=O)C(=O)N[C@@H](Cc2c[nH]c3ncccc23)C(=O)N[C@@H](Cc2ccc3ccccc3c2)C(=O)NC(C)(C)C(=O)N1` [Compound 43, [4-Aminomethyl-phenylacetyl](1c)*AE(2c)WQ[Dab](2c)[7-AzaTrp][2-Nal][Aib]E(1c)[Dab][3-(3-Pyridyl)-Ala]-[NHMe]], the fraction remaining at 1 h, 10 µM in series [1] was 105%. In series [2], half-maximal inhibition (IC50) required 3.9 nM and the “maximal inhibition (%)” value is 102%.
For `CC(C)C[C@]1(C)NC(=O)[C@H](Cc2ccc3ccccc3c2)NC(=O)[C@H](Cc2ccc(OCCN)cc2)NC(=O)[C@@H]2CCNC(=O)CC[C@H](NC(=O)[C@H](CO)NC(=O)Cc3ccc(cc3)CNC(=O)CC[C@@H](C(=O)N[C@@H](CCN)C(=O)N[C@@H](Cc3cccnc3)C(=O)N(C)CC(N)=O)NC1=O)C(=O)N[C@@H](Cc1c[nH]c3ccccc13)C(=O)N[C@@H](CCC(N)=O)C(=O)N2` [Compound 9, [4-Aminomethyl-phenylacetyl](1c)*SE(2c)WQ[Dab](2c)[Y(2-aminoethoxy)][2-Nal][2-Me-Leu]E(1c)[Dab][3-(3-Pyridyl)-Ala][Sar]-[NH2]] ([X1]SEWQ[Dab][AEF][2Nal][αMeL]E[Dab][3Pal][Sar]-NH2; lactam 3-6, N-10), the fraction remaining at 4 h, 10 µM in series [1] was 95%. Further, in series [2], the midpoint of inhibition, the IC50, lay at 0.21 nM and the “maximal inhibition (%)” value came to 97%.
For the molecule `CNC(=O)[C@H](Cc1cccnc1)NC(=O)[C@H](CCN)NC(=O)[C@@H]1CCC(=O)NCc2ccc(cc2)CC(=O)N[C@@H](CO)C(=O)N[C@H]2CCC(=O)NCC[C@H](NC(=O)[C@H](CCC(N)=O)NC(=O)[C@H](Cc3c[nH]c4ccccc34)NC2=O)C(=O)N[C@@H](Cc2ccc(OCCN)cc2)C(=O)N[C@@H](Cc2ccc3ccccc3c2)C(=O)N[C@@](C)(CC(C)C)C(=O)N1` [Compound 8, [4-Aminomethyl-phenylacetyl](1c)*SE(2c)WQ[Dab](2c)[Y(2-aminoethoxy)][2-Nal][2-Me-Leu]E(1c)[Dab][3-(3-Pyridyl)-Ala]-[NHMe]], in series [1], the amount remaining at 1 h, 10 µM was 91% and the amount remaining at 4 h, 10 µM is 87%. In addition, in series [2], half-maximal inhibition (IC50) required 0.33 nM and the “maximal inhibition (%)” value amounted to 96%.

These data come from patent US20260327264A1, “PEPTIDE INHIBITORS OF INTERLEUKIN-23 RECEPTOR” (Zealand Pharma A/S, priority 2023, published 2026).
